From patent US20230107216A1, “PANTETHEINE DERIVATIVES AND USES THEREOF” (Comet Therapeutics, Inc., priority 2018, published 2023)
Where two headings read alike, the source gives them in different places.

What was measured:
[1] = system: Very long-chain acyl-CoA dehydrogenase (VLCAD) primary fibroblasts GM17475; assay: Total NAD+ + NADH and NAD+ (NAD/NADH-Glo), VLCAD fibroblasts GM17475; format: cell-based; settings: Homo sapiens, Fibroblast, VLCAD GM17475 P10, assay condition A, 24h, read-out: Increase in Total NAD+ + NADH
Protocol: (§1) Primary adherent fibroblasts were cultured in minimum essential medium (MEM) (Gibco, 25030081) supplemented with 2 mM L-Glutamine (Gibco, 25030081), 15% fetal bovine serum (FBS) (Gibco, 26400044) and 1% penicillin/streptomycin (Gibco, 5140122) at 37° C. and 5% CO2. Cells were collected for either passaging or experiment at ˜70-80% confluence. Cells were obtained by trypsinization and seeded in cell culture microplates either white plate (Thermo Fisher Scientific, 152028) for luminescent measurement or black plate (Thermo Fisher Scientific, 165305) for fluorescent based read out for different assays listed below. Cells were obtained by trypsinization and […] were seeded and allowed to adhere for 16-18 hours to have confluency around 70-80% in the cell well with culture media. After 24 hours prior to measurements (37° C., 5% CO2) media was changed to Dulbecco's Modified Eagle Medium (DMEM, Agilent Seahorse cat #103575-100) with the appropriate supplements as stated below.
(§2) Primary fibroblasts assayed were Propionic Acidemia (PA) (GM03590 Coriell Institute for Medical Research, Tsi 6337 Trans-Hit Bio), Methylmalonic Acidemia (MMA) (Tsi 5224 Trans-Hit Bio), Subnormal activation of pyruvate dehydrogenase complex (PDH) (GM01503 Coriell Institute for Medical Research), Very long-chain acyl-CoA dehydrogenase (VLCAD) (GM17475), Leigh Syndrome (LS) (GM03672, GM13411 Coriell Institute for Medical Research), Pyruvate Carboxylase Deficiency (PC) (GM00444 Coriell Institute for Medical Research). 10 μM of Compounds were added for 2 hours in PA, MMA lines and for 24h for the other fibroblast lines.
(§3) Assay was performed according to manufacturer instructions (NAD/NADH-Glo Assay Promega, G9072). The NAD/NADH-Glo Assay is a bioluminescent assay for detecting total oxidized and reduced nicotinamide adenine dinucleotides (NAD+ and NADH, respectively) from which ratio of NAD/NADH can be calculated. Briefly, for every assay a 12-point standard curve was prepared ranging from 400 nM to 0.625 nM. Media was removed and replaced with 50 μl of PBS for both assays.
(§4) For individual NAD+ and NADH measurement, 50 μl of 1% DTAB (Sigma Cat #D5047) (cell lysis reagent) in 0.2N NaOH was added to the plate and a total 100 μl of lysate was split into two plates with 50 μl each. 25 μl of 0.4N HCl were added to the NAD+ plate and both NAD+ and NADH plate were heated at 60° C. for 15 minutes. The acid and heat treatment destroyed NADH allowing individual NAD+ measurement while heating in basic conditions destroys NAD+ allowed individual NADH measurements. The plates were allowed to come to room temperature for 10 minutes and Trizma base (Sigma, T1699) was added to the NAD+ plate to neutralize the acid and HCl Trizma hydrochloride (Sigma, T2694) was added to the NADH plate. The NADNADH glo reagent was prepared by adding: 625 μl of NAD cycling substrate, 125 μl of reductase, 125 μl of reductase substrate, 125 μl NAD cycling enzyme to total of the 25 ml of NAD GLO reagent. 1:1 ratio of total volume of reagent was added to the individual NAD+, NADH measurement (total 100 μl) and 50 μl for total NAD/NAH measurement. Luminescence was read between 30-60 minutes within the linear range.
(§5) A total dead cell count was performed as described in Example 817 and only alive cells were used for analysis.

[2] = system: HepG2 cells; assay: Glucose uptake (Glucose Uptake-Glo); format: cell-based; settings: Homo sapiens, read-out: % increase in Glucose Uptake
[3] = system: Subnormal activation of pyruvate dehydrogenase complex (PDH) primary fibroblasts GM01503 (GM1503A); assay: Total NAD+ + NADH and NAD+ (NAD/NADH-Glo), PDH fibroblasts GM01503; format: cell-based; settings: Homo sapiens, Fibroblast, PDH GM1503A P10, assay condition A, 24h, read-out: Increase in Total NAD+ + NADH
Protocol: as §1, §2, §3, §4, §5

[4] = system: primary fibroblasts (healthy controls and PA, MMA, BCKDK, PDH, VLCAD, LS, PC, GA, VLCFA, KSS, FXN, HD); assay: Measurement of ROS (H2DCFDA) in primary fibroblasts; format: cell-based, human; settings: Homo sapiens, procedure Example 812, Assay Condition C
Procedure, shortened: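 Patient and healthy-control primary fibroblasts switched to supplemented DMEM 24 h before assay, then treated with compound (10 μM) plus H2DCFDA (22 μM) for 2 h (PA, MMA lines) or 24 h (other lines). Kinetic fluorescence at 492/527 nm over 60 min; only live cells analysed.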

[5] = system: Propionic Acidemia (PA) primary fibroblasts GM00371; assay: Mitochondrial respiration, XFe96 Extracellular Flux Analyzer (OCR/ECAR), PA fibroblasts GM00371; format: cell-based; settings: Homo sapiens, Fibroblast
[6] = system: Peripheral blood mononuclear cells co-cultured with B-cells (BT system)
[7] = system: Peripheral blood mononuclear cells co-cultured with B-cells (BT system); assay: cells; settings: Homo sapiens, 72 h, read-out: % decrease in sIL-17
[8] = system: Peripheral blood mononuclear cells co-cultured with venular endothelial cells (HUVEC) (LPS system); assay: BioMAP LPS system; format: cell-based, human; settings: procedure of Example 827
[9] = system: Dermal fibroblasts (HDF3CGF system); assay: BioMAP HDF3CGF system (IL-1β, TNFα, IFNγ, EGF, bFGF, PDGF-BB); format: cell-based, human; settings: Homo sapiens, Fibroblast, 72 h; 10 uM; read-out: % increase in 72 Hour Proliferation
[10] = system: Keratinocytes co-cultured with dermal fibroblast (KF3CT system); assay: BioMAP KF3CT system (IL-1β, TNFα, IFNγ, TGFβ); format: cell-based, human
Protocol: (§6) The BioMAP platform (BioMAP® Diversity PLUS® Panel from Eurofins) is an in vitro phenotypic profiling technology that screened the compounds of the present disclosure (hereafter indicated as test agents) in human primary cell-based systems modelling complex tissue and disease states. The BioMAP assays were performed using the Eurofin's BioMAP Technology Platform as (see references 1 to 13 in the example 824 section) to model different diseases on primary cell-based model systems. These systems consisted of either single primary cell types or co-culture cells. Adherent cell types were cultured or co-cultured in 96 or 384-well plates until confluence followed by the addition of compounds prepared in DMSO at a final concentration of ≤0.1%. In each cell-based system, primary cells from heathy donors (2-6 donors) were pooled and treated with compounds at 1 and 10 μM dose 1h prior to stimulation and remain in culture as indicated in Example 825, Example 826, Example 827, Example 828, Example 829, Example 830, Example 831, Example 832, Example 833, Example 834, Example 835, Example 836 and Example 837. For on the BioMAP® Diversity PLUS® Panel, please see the following references, which are incorporate herein.
Following the general procedure as described in Example 824, Keratinocytes were co-cultured with dermal fibroblast (KF3CT system) and treated with IL-1β, TNFα, IFNγ and TGFβ for 24h in the presence or absence of the compounds to model psoriasis, dermatitis and skin biology. Biomarkers read out were; MCP-1, ICAM-1, IP-10, IL-8, MIG, IL-1α, MMP-9, PAI-1, SRB, TIMP-2, uPA.

[11] = system: Bronchial epithelial cells (BE3C system); assay: BioMAP BE3C system (IL-1β, TNFα, IFNγ); format: cell-based, human; settings: Homo sapiens, Epithelial cell, 24 h; 10 uM; procedure of Example 831; read-out: % decrease in MMP-1
[12] = system: Coronary artery smooth muscle cells (CASM3C system); assay: BioMAP CASM3C system (IL-1β, TNFα, IFNγ); format: cell-based, human
[13] = system: Venular Endothelial cells (HUVEC) (4H system); assay: BioMAP 4H system (IL-4 and histamine); format: cell-based, human; settings: 10 uM; procedure of Example 826
[14] = system: Venular Endothelial cells (HUVEC) (3C system); assay: BioMAP 3C system (IL-1β, TNFα, IFNγ); format: cell-based, human; settings: 10 uM; procedure of Example 825
Protocol: as §6
Following the general procedure as described in Example 824, Venular Endothelial cells (HUVEC) (3C system) were treated with IL-1β, TNFα, IFNγ for 24h to model Th1 driven cardiovascular and chronic inflammation diseases in the presence or absence of the compounds. Biomarker read out were; Tissue Factor, ICAM-1, E-selectin, uPAR (CD87), IL-8, MIG, HLA-DR, proliferation and SRB (Sulfo-rhodamine i.e. staining for protein content).

[15] = system: Bronchial epithelial cells co-cultured with dermal fibroblast (BF4T system); assay: BioMAP BF4T system (TNFα and IL-4); format: cell-based, human; settings: 10 uM, procedure of Example 830

CC(=O)C(C(C)=O)C(=O)SCCNC(=O)CCNC(=O)[C@H](O)C(C)(C)CO [Compound 397, (2R)—N-[2-([2-[(2-acetyl-3-oxobutanoyl)sulfanyl]ethyl]arbamoyl)ethyl]-2,4-dihydroxy-3,3-dimethylbutanamide]
activation at 10 µM [1]: ≥ 10% | activation at 10 µM ([2]; 10 uM): ≥ 20% | activation at 10 µM [3]: ≥ 10% | inhibition at 10 µM ([4]; Fibroblast, PDH GM01503, read-out: Decreased ROS by at least 10%): ≥ 10% | inhibition at 10 µM ([4]; Fibroblast, PDH GM01503, read-out: Decreased ROS by at least 30%): ≥ 30% | inhibition at 10 µM ([4]; FXN GM04078, read-out: Decreased ROS by at least 30%): ≥ 30% | activation at 50 µM ([5]; assay condition C (10 mM glucose, 10% FBS), read-out: Increase in Maximal Respiratory Capacity AUC): ≥ 10%

COC(=O)CCC(=O)SCCNC(=O)CCNC(=O)[C@H](OC(C)=O)C(C)(C)CO [Compound 213, methyl 4-[(2-[3-[(2R)-2-(acetyloxy)-4-hydroxy-3,3-dimethylbutanamido]propanamido]ethyl)sulfanyl]-4-oxobutanoate]
% decrease in sIL-2 ([6]; 1 uM, procedure of Example 829): ≥10% | % decrease in sTNFα ([6]; 1 uM, procedure of Example 829): ≥10% | % decrease in PBMC cytotoxicity ([6]; human, 72 h, 1 µM): ≥10% | inhibition at 1 µM [7]: ≥ 20% | % decrease in M-CSF ([8]; 1 uM): ≥10% | inhibition at 1 µM ([8]; Homo sapiens, HUVEC, 24 h, 1 uM, read-out: % decrease in IL-8): ≥ 10% | inhibition at 10 µM ([8]; Homo sapiens, HUVEC, 24 h, read-out: % decrease in IL-1α): ≥ 20% | inhibition at 10 µM ([8]; Homo sapiens, HUVEC, 24 h, read-out: % decrease in TissueFactor): ≥ 10% | activation at 10 µM [9]: ≥ 10% | % decrease in MMP-9 ([10]; 1 uM): ≥10% | % decrease in MCP-1 ([10]; 10 uM, procedure of 834): ≥10% | inhibition at 10 µM [11]: ≥ 10% | % decrease in HLA-DR ([12]; 1 uM): ≥10% | % decrease in Tissue Factor ([12]; 1 uM): ≥10% | % decrease in M-CSF ([12]; 1 uM, procedure of Example 832): ≥10% | % decrease in VCAM-1 ([12]; 1 uM, procedure of Example 832): ≥10% | % decrease in CXCL9 ([12]; 10 uM): ≥10% | inhibition at 10 µM ([12]; Homo sapiens, 24 h, 10 uM, read-out: % decrease in Thrombomodulin): ≥ 20% | % decrease in MCP-1 [13]: ≥10% | % decrease in IL-8 [14]: ≥10% | activation at 50 µM ([2]; 50 uM): ≥ 30% | % decrease in MMP-9 [15]: ≥10% | activation at 10 µM ([15]; Homo sapiens, 24 h, read-out: % increase in VCAM-1): ≥ 10% | activation at 10 µM ([5]; assay condition A (10 mM glucose, 2 mM L-glutamine, 1 mM pyruvate, 10% FBS), 10 μM, read-out: Increase in Spare Capacity AUC): ≥ 10% | activation at 50 µM ([5]; assay condition D (1 mM glucose, 10% FBS), read-out: Increase in Spare Capacity AUC): ≥ 10%
